| SMILES | melting point |
| --- | --- |
| CC(C)(C)OC(=O)NCc1cccc(CC(=O)O)c1 | 95 to 96.5 °C |
| CC(C)(C)Nc1c(Nc2ccc3cn[nH]c3c2)c(=O)c1=O | 183 to 185 °C |
| CCOc1cc2nc(CCl)nc(Cl)c2cc1OCC | 109 to 112 °C |
| CCC1(CC)C(=O)N(C(C)(C)CC(C)(C)C)CC(C)(C)N1OC(C)(C)C#N | 49 to 53 °C |
| O=C(C=C(c1ccccc1)c1ccccc1)Nc1ccc(C(=O)O)cc1 | 222 to 224 °C |
| COC(=O)Cc1ccc(S(=O)(=O)c2ccc(Cl)cc2)cc1 | 78 to 80 °C |
| N#Cc1ccc(NC(=O)c2cccc(OCc3ccc(C(F)(F)F)cc3)c2)cc1 | 167 to 168 °C |
| CC(C)(C)CNc1nc(NC(C)(C)C)cc(N2CCNCC2)n1 | 146 to 148 °C |
| Cn1c(CO)nc2cncnc21 | 122 to 125 °C |
| CC(=O)SC1NC(=O)C1C (stereo unspecified) | 53 to 65 °C |
| COC(=O)c1ccc(CC(C)NCC(O)c2ccccc2)cc1 (stereo unspecified) | 82 to 84 °C |
| COc1cc(C(C)C)c2c(c1)S(=O)(=O)N(COC(=O)C(C)(C)C)C2=O | 178 to 179 °C |
| Cc1[nH]c(-c2ccncc2)c(C)c1C(=O)C(F)(F)F | 169 to 170 °C |
| CC(=O)CCCn1c(=O)c2c(ncn2C)n(C)c1=O | 109 to 111 °C |
| CC(=O)ON=C(N)c1cccc(C(=O)NCCCNC(=O)[C@@H]2CCCN2S(=O)(=O)c2ccc(Cl)c(COc3cccc4c(C)cc(C)nc34)c2Cl)c1 | 100 to 104 °C |
| N#Cc1cc(-c2ccnc(Nc3cccc(Cl)c3)n2)ccn1 | 221 to 222 °C |

| SMILES | melting point |
| --- | --- |
| c1ccc(P(c2ccccc2)c2cccc3c2-c2c(cccc2P(c2ccccc2)c2ccccc2)OCCCO3)cc1 | 85 °C |
| CCOC(=O)C1=C(C)NN=C(C(=O)OC)C1c1cccnc1 (stereo unspecified) | 179 °C |
| CC(C)(C)C(=O)NCCCOc1ccncc1 | 71.5 to 72.5 °C |
| CS/C(=N\O)C(F)(F)F | 52 to 54 °C |
| O=C(O)C1=Cc2cc(Cl)ccc2NC1C(F)(F)F (stereo unspecified) | 133 to 134 °C |
| Cc1ccc(C(=O)Nc2nc(-c3ccccc3)c(-c3nc4ccccc4c(=O)n3-c3ccc(C)cc3)s2)cc1 | 217 to 218 °C |
| COc1cc(OC)nc(CCl)n1 | 40 to 42 °C |
| CCCCCCCCCCC/C=C\c1c[nH]c(C(=O)O)c1 | 157 to 158 °C |
| N#Cc1cnc2sc(C(=O)O)cc2c1Nc1ccc2[nH]ccc2c1 | > 250 °C |
| OC1(C#Cc2ccc(-c3ccccc3)cc2)CN2CCC1CC2 (stereo unspecified) | 217 to 218 °C |
| NCC(O)c1cc(Cl)cc(Cl)c1 (stereo unspecified) | 66 °C |
| O=C(O)C1=Cc2cc(Cl)ccc2N(Cc2ccc(C(F)(F)F)cc2)C1C(F)(F)F (stereo unspecified) | 229 to 231 °C |
| CC(C)c1ccc(S(=O)(=O)Nc2ccc(Cl)cc2I)cc1 | 149 °C |
| CC(C)(C)OC(=O)NC(CF)CC(=O)O (stereo unspecified) | 112 °C |
| C[C@@H](OC(=O)c1cc([N+](=O)[O-])cc([N+](=O)[O-])c1)[C@@]1(c2ccc(F)cc2F)CO1 | 104 to 107 °C |

Continued, values first:

| melting point | SMILES |
| --- | --- |
| 214 to 215 °C | O=C(NCCO)c1cccc(-c2nc(=O)c3ccccc3s2)n1 |
| 92 to 93 °C | ClCCCCOc1ccccc1/C=C/c1nc2ccccc2o1 |
| 223 to 224 °C | O=C(O)COc1ccc(CN2C(=O)C3(COc4cc5c(cc43)OCCO5)c3ccccc32)cc1 (stereo unspecified) |
| 249 to 250 °C | CN1CCCN(C)P1(=O)Cc1ccc(NC(=O)C2=Cc3cc(-c4ccccc4)ccc3CC2)cc1 |
| 253 to 255 °C | O=C1CCC(N2Cc3c(CNC(=O)Nc4ccc(Cl)c(Cl)c4)cccc3C2=O)C(=O)N1 (stereo unspecified) |
| 95 to 120 °C | COc1ccc(OCC(O)CN2CCC(C3Oc4ccccc4Cn4cccc43)CC2)cc1 (stereo unspecified) |
| 190 to 191 °C | O=C(O)c1cccc(-c2cccc3c2CN(Cc2cccc(C(F)(F)F)c2)C3=O)c1 |
| 146 °C | CC(C)(C)N(CC(=O)Nc1n[nH]c(=S)s1)C(=O)C(Cc1ccc(OCc2ccccc2)cc1)NC(=O)OCc1ccccc1 (stereo unspecified) |
| 114 to 116 °C | O=C(Nc1c(OCc2ccccc2)cccc1C(=O)O)c1ccccc1 |
| 181 to 183 °C | CCCOc1ccccc1C(=O)Nc1cnccc1C(N)=O |
| 124 to 125 °C | Cc1ccc(-c2ccc(C(=O)c3ccccc3)cc2)cc1 |
| 180 to 182 °C | CCCc1c(OCCCOc2ccc(C(=O)O)cc2Br)ccc(C(C)=O)c1O |
| 145 to 146 °C | Nc1ccccc1-n1sc(-c2ccccc2)cc1=O |
| 124 to 125 °C | COc1ccc2c(c1)c(C(=O)N1CCN(C)CC1)c(N1CCNCC1)n2C |
| 304 to 309 °C | O=C1N=C(NN2CCOCC2)SC1=Cc1cccc(-c2cc(F)c(O)c(C34CC5CC(CC(C5)C3)C4)c2)c1 |
| 154 to 155 °C | O=C(Cc1cccc(O)c1)NNC(=O)c1c(OCc2ccccc2)cc(OCc2ccccc2)cc1OCc1ccccc1 |
| 123 to 124 °C | O=S(=O)(Cc1ccccc1)NCCCCOc1ccc(-n2ccnc2)cc1 |
| 108 to 110 °C | N#CN1CCC(c2nn(-c3ccc(F)cc3)c3ccccc23)CC1 |
| 164 to 165 °C | O=S(=O)(Nc1cccc2cc(-c3nccs3)[nH]c12)c1cccs1 |
| 232 to 233 °C | Cc1cc(-c2nc3cccnn3c2-c2ccnc(NC(=O)NC(C)C)c2)ccc1F |

| melting point | SMILES |
| --- | --- |
| 140 to 141 °C | COc1ccc(C2CNC(=O)C2)cc1OCCN1CCN(c2ccccc2)CC1 (stereo unspecified) |
| 192 to 193 °C | COC(=O)Nc1cc(C(C)(C)C)cc(NC(=O)Nc2ccc(-c3ccc(CN4CCOCC4)nc3)c3ccccc23)c1OC |
| 162 to 164 °C | Cc1ccc2c(c1)C(=O)CC21CNC(=O)C1 (stereo unspecified) |
| 29 to 31 °C | CN(C)CCCN=Cc1ccc2ccccc2c1 |
| 212 to 214 °C | CN1c2ccccc2-c2nc3ccccc3c3cccc1c23 |
| 222 to 224 °C | CCc1cncc(-c2[nH]nc(C(=O)Cc3ccc4ccccc4c3)c2N)c1 |
| 173 to 175 °C | Cc1cnc2ccc(-c3cccnc3)nn12 |
| 160 to 162 °C | CC(=S)NCC1CN(c2ccc(-n3cnc(Cn4ccnc4)c3)c(F)c2)C(=O)O1 (stereo unspecified) |
| 129 to 131 °C | COc1ccc(OC)c(C(=O)c2cc3ccc(OC)cc3o2)c1 |
| 193 to 197 °C | Cc1ncc2c(n1)-c1ccc(Cl)cc1C(c1ccccc1Cl)=NC2 |
| 151 to 153 °C | Cc1c(Cl)nnc2c1CN(C(=O)c1ccccc1F)CC2 |
| 125 to 126 °C | CCCCCN1C(=O)C(NC(=O)c2ccc(Cl)c(Cl)c2)c2ccccc21 (stereo unspecified) |
| 240 to 241 °C | CCCc1c(C#N)c2ccc(C(=O)O)cc2n1Cc1ccccc1Cl |
| 220 to 223 °C | CS(=O)(=O)N1CCC(Nc2ncc3cc(Cc4ccccn4)c(=O)n(C4CCCC4)c3n2)CC1 |
| 155 to 156 °C | Cc1cccc(-c2n[nH]cc2-c2ccc(F)c(-c3cnn(C)c3)c2)n1 |
| 133 to 135 °C | COc1ccc2[nH]c(CO)cc2c1C |
| 154 to 155 °C | COc1ccc(-c2cc3cc(F)c(F)cc3[nH]2)cc1NCc1cccc(C#N)c1 |
| 263 to 267 °C | Cc1cc(=O)n2nc(-c3ccncc3)nc2n1C |
| 218 to 221 °C | CN1C(=O)C(c2cccc(-c3cccnc3F)c2)(c2cc(C=O)n(CCF)c2)N=C1N (stereo unspecified) |
| 395 to 396 °C | COc1ccc(-n2nc(O)c3c(=O)c4ccc(Cl)cc4[nH]c3c2=O)cc1Cl |
